Results: US20240091372A1, “ANTI-DOPPEL ANTIBODY DRUG CONJUGATES” (SEOUL NATIONAL UNIVERSITY R&DB FOUNDATION, priority 2022, published 2024)
No end group written: not given here. *: point of attachment. MMAE = monomethyl auristatin E, CC[C@H](C)[C@@H]([C@@H](CC(=O)N1CCC[C@H]1[C@H](OC)[C@@H](C)C(=O)N[C@H](C)[C@@H](O)c1ccccc1)OC)N(C)C(=O)[C@@H](NC(=O)[C@H](C(C)C)N(C)*)C(C)C; p‑aminobenzylcarbamate = NC(=O)OCc1ccc(N*)cc1

B1: 3H9-KGDEVD-MMAE (name=SEQ ID NO:65; structure=SEQ ID NO:66) (antibody, human IgG1, kappa, V domains shown)
VH: EVQLVESGGGLVQPGGSLRLSCAASGFTFSSYAMSWVRQAPGKGLEWVSGISGSGSRTDYADSVKGRFTISRDNSKNTLYLQMNSLRAEDTAVYYCAKVYTYTRGFAFDLWGQGTLVTVSS
VL: DIQMTQSPSSLSASVGDRVTITCRASQSISNYLNWYQQKPGKAPKLLIYAASTLQSGVPSRFSGSGSGTDFTLTISSLQPEDFATYYCQQSYSFPYTFGQGTKVEIKR
modifications: maleimide-KGDEVD-MMAE (SEQ ID NO:77) linker-payload on reduced Cys residues of the partially reduced mAb; positions and chain not stated
B2: 3H9-vc-MMAE (antibody, human IgG1, kappa, V domains shown)
VH: EVQLVESGGGLVQPGGSLRLSCAASGFTFSSYAMSWVRQAPGKGLEWVSGISGSGSRTDYADSVKGRFTISRDNSKNTLYLQMNSLRAEDTAVYYCAKVYTYTRGFAFDLWGQGTLVTVSS
VL: DIQMTQSPSSLSASVGDRVTITCRASQSISNYLNWYQQKPGKAPKLLIYAASTLQSGVPSRFSGSGSGTDFTLTISSLQPEDFATYYCQQSYSFPYTFGQGTKVEIKR
modifications: mc-Val-Cit-PABA-MMAE linker-payload on reduced Cys residues of the partially reduced mAb; positions and chain not stated

Key:
HCT116 xenograft tumor = assay: In vivo efficacy in HCT116 xenograft tumor model; parameters: species or system balb-c/nu mice; conditions: for tumor growth suppression (KGDEVD-MMAE ADCs): same tumor model, FIG. 7
Procedure: To assess the anti-tumor efficacy of anti-doppel ADCs, an HCT116 xenograft tumor model was used. HCT116 cells (1×10^^7 cells/mouse) were inoculated into the left flank of balb-c/nu mice. When the average tumor volume reach 70-100 mm^3, ADC was administered intravenously every 4 days for a total of 4 times. Tumor volume was measured every 4 days until the end of the experiments.

doppel = doppel (human, UniProt Q9UKY0 26-152); assay: cell-based or functional assay
Chain of doppel (Q9UKY0 26-152): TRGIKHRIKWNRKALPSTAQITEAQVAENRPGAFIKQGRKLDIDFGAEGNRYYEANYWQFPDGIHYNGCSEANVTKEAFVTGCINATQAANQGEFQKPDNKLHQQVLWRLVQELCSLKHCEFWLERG

Row | Molecule | tumor growth suppression (KGDEVD-MMAE ADCs) (HCT116 xenograft tumor) | IC50 (nM), cytotoxicity on HCT116 cells, viability after 72 hours (doppel) [nM] | other results
1 | 3D5-KGDEVD-MMAE: ADC prepared as 3H9-KGDEVD-MMAE using anti-doppel mAb 3D5 (maleimide-KGDEVD-{p‑aminobenzylcarbamate-MMAE}; also: conjugated to mAb 3D5 through maleimide) | effectively suppressed tumor growth |  | 
2 | 3H9-DEVD-MMAE: ADC prepared as 3H9-KGDEVD-MMAE except using maleimide-DEVD-MMAE (DEVD-{p‑aminobenzylcarbamate-MMAE}; not fully specified (N-terminus); also: conjugated to mAb 3H9 through maleimide) |  |  | tumor growth suppression, ADCs with different linkers (HCT116 xenograft tumor; HCT116 xenograft, FIG. 6): effectively suppressed tumor growth
3 | 4D1-KGDEVD-MMAE: ADC prepared as 3H9-KGDEVD-MMAE using anti-doppel mAb 4D1 (maleimide-KGDEVD-{p‑aminobenzylcarbamate-MMAE}; also: conjugated to mAb 4D1 through maleimide) | effectively suppressed tumor growth |  | 
4 | B1 |  | 39.3 | 
5 | B2 |  | 28.6 | 
